Test results reported in patent US20070032468A1, “Novel thioxanthine derivatives for use as inhibitors of mpo” (AstraZeneca AB, priority 2003, published 2007).
pIC50: −log10 of the molar value.

Molecular target: T1, human MPO (Homo sapiens, UniProt P05164)
T1 sequence (P05164 49-745): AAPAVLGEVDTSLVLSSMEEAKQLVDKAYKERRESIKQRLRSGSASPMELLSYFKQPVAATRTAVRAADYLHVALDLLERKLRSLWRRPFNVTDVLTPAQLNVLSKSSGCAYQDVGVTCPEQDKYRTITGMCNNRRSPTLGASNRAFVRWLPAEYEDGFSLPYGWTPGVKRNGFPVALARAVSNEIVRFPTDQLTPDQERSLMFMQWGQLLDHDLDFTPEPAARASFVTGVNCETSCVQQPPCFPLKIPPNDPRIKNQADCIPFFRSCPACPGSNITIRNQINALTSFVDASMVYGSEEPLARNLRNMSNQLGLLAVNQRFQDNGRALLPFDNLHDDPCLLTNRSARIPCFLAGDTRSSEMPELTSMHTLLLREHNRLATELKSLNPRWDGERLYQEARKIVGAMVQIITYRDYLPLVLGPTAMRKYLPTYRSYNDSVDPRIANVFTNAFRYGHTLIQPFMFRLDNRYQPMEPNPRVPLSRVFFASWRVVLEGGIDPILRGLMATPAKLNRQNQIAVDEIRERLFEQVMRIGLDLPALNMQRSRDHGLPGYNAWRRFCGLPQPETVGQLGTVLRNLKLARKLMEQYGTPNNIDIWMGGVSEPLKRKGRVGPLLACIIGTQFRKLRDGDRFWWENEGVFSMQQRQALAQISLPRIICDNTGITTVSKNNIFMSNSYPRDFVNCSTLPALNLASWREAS
Assay: MPO inhibitory activity screen (TMB oxidation, absorbance)
Format: biochemical
Conditions: human MPO 2.5 nM, H2O2 100 μM, buffer pH 6.5, absorbance at about 650 nM
Protocol: Methods for the determination of MPO inhibitory activity are disclosed in co-pending patent application WO 02/090575. The pharmacological activity of compounds according to the invention was tested in the following screen:
Assay buffer: 20 mM sodium/potassium phosphate buffer pH 6.5 containing 10 mM taurine and 100 mM NaCl.
Developing reagent: 2 mM 3,3′,5,5′-tetramethylbenzidine (TMB), 200 μM KI, 200 mM acetate buffer pH 5.4 with 20% DMF.
To 10 μl of diluted compounds in assay buffer, 40 μl of human MPO (final concentration 2.5 nM) was added for 10 minutes at room temperature. Then 50 μl of H2O2 (final concentration 100 μM), or assay buffer alone as a control, were added for 10 minutes at room temperature. The reaction was stopped by adding 10 μl 0.2 mg/ml of catalase (final concentration 18 μg/ml) for 5 minutes before 100 μl of TMB developing reagent was added (2 mM TMB in 200 mM acetate buffer pH 5.4 containing 20% dimethylformamide (DMF) and 200 μM KI). Plates were mixed and the amount of oxidised 3,3′,5,5′-tetramethylbenzidine formed was then measured after about 5 minutes using absorbance spectroscopy at about […]. IC50 values were then determined using standard procedures.

pIC50: > 4.22
SMILES: CC(C)Cn1c(=S)[nH]c(=O)c2[nH]c(C(F)(F)F)nc21 [Example 1, 3-Isobutyl-2-thioxo-8-trifluoromethyl-1,2,3,7-tetrahydro-purin-6-one]
